Assay results taken from patent US5376679A, “Bicyclic or tricyclic biocidal compounds” (Shell Internationale Research Maatschappij B.V., priority 1988, dated 1994).

Tests used:
bacteria = conditions: prior art; cited from earlier work
fungi = conditions: prior art; cited from earlier work
Plasmopara viticola [1] = experiment: Direct protectant activity against vine downy mildew (Pvp); assay type: in vivo; set-up: Pvp: direct protectant activity against vine downy mildew: scale not given here; conditions: foliar spray, 1 kg/ha; activity grade 1 or 2, not defined
In short: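 Lower leaf surfaces of whole vine plants (cv Cabernet Sauvignon) were sprayed at 1 kg/ha in water/acetone with surfactant, then inoculated 24 h later with 10^4 zoosporangia/ml. Scored as % leaf area with sporulation versus control leaves.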

[2] = system: Pseudocercosporella herpotrichoides; experiment: In vitro activity against wheat eyespot (Ph); assay type: cell-based; set-up: Ph: activity against wheat eyespot: scale not given here; conditions: for Ph: activity against wheat eyespot: in vitro, 100 ppm in agar, 11 days, activity grade 1 or 2, not defined
In short: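 Compound was dispersed from acetone into half-strength potato dextrose agar at 100 ppm final. Two 5 mm mycelial plugs were placed on each plate, which was incubated 11 days at 20–22 °C in darkness. Diametric growth minus plug width was compared with acetone-only agar.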

Leptosphaeria nodorum = experiment: Direct antisporulant activity against wheat leafspot (Ln); assay type: in vivo; set-up: scale not given here; conditions: foliar spray, 1 kg/ha; activity grade 1 or 2, not defined
In short: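 Single-leaf wheat plants were spray-inoculated with 8×10^5 spores/ml and held 24 h at high humidity before foliar spray treatment. Plants were then kept 5 days in the glasshouse. Read-out is the percentage of leaf area sporulating, relative to untreated controls.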

[3] = system: Erysiphe graminis f.sp. hordei; experiment: Direct antisporulant activity against barley powdery mildew (Eg); assay type: in vivo; set-up: scale not given here; conditions: foliar spray, 1 kg/ha; activity grade 1 or 2, not defined
In short: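 Barley seedlings (cv. Golden Promise) were dusted with conidia one day before a foliar spray of compound. Plants were then held at ambient glasshouse conditions for up to 7 days. Sporulating leaf area (%) was scored against untreated control plants.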

Alternaria Solani = experiment: Direct protectant activity against tomato early blight (As); assay type: in vivo; set-up: As: activity against tomato early blight: scale not given here; conditions: foliar spray as under (a), 8 days; activity grade 1 or 2, not defined; further: dose 1000 g/ha
Protocol: (g) Activity Against Tomato Early Blight (Alternaria Solani; As). The test is a direct protectant one using a foliar spray. The upper surfaces of leaves of young tomato plants are sprayed with a solution of active material as described in (a) above. After 24 hours under normal glasshouse conditions, the upper surfaces of the leaves are inoculated by spraying with an aqueous suspension containing 10^4 spores/ml. The inoculated plants are kept for 72 hours in a high humidity compartment and are then removed to lower humidity (50-70% relative humidity). Assessment is made 8 days after inoculation.

Pyricularia oryzae = assay type: in vivo; conditions: foliar spray, 1 kg/ha; activity grade 1 or 2, not defined
Podosphaera leucotricha = experiment: Direct antisporulant activity against apple powdery mildew (Pl); assay type: in vivo; conditions: foliar spray, 1 kg/ha; activity grade 1 or 2, not defined
Text: (h) Activity Against Apple Powdery Mildew (Podosphaera leucotricha; Pl) The test is a direct anti-sporulant one using a foliar spray. The upper surfaces of leaves of whole seedlings are inoculated by spraying with an aqueous suspension containing 10^5 conidia/ml 2 days prior to treatment with the test compound. The inoculated plants are immediately dried and kept at glasshouse ambient temperatures and humidity prior to treatment. […] After drying the plants are returned to a compartment at ambient temperature and humidity for up to 9 days, followed by assessment. Assessment is based on the percentage of the leaf area covered by sporulation compared with that on leaves of control plants.

Botrytis cinerea = experiment: Direct protectant activity against vine grey mould (Bcp); assay type: in vivo; conditions: foliar spray, 1 kg/ha; activity grade 1 or 2, not defined
Text: (b) Direct Protectant Activity Against Vine Grey Mould (Botrytis cinerea; Bcp) The test is a direct protectant one using a foliar spray and is effected as described under (a), with the difference that the leaves are inoculated by spraying with an aqueous solution containing 10^5 conidia/ml.

Plasmopara viticola [4] = experiment: Translaminar protectant test, vine downy mildew (Pvt); assay type: in vivo; conditions: secondary screening
Text: The fungicidal activity of certain of the compounds was investigated further, in secondary screening.

Fusarium culmorum = experiment: Activity against seedling wheat blight, soil drench (Fs); assay type: in vivo; set-up: scale not given here; conditions: 10 kg/ha, 21 days, activity grade 1 or 2, not defined
In short: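 Wheat seeds (var Waggoner) soaked 6 h at 22° C in 7×10^5 spores/ml, sown in sand; 1 day later soil drench at 10 kg/ha (0.36 g/l in 12% v/v acetone/water). Glasshouse at 25° C; at 21 days, stem-base and upper-root lesions scored visually against control seedlings.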

Row | SMILES | antibacterial activity (bacteria) | antifungal activity (fungi) | Ph: activity against wheat eyespot [2] | Eg: activity against barley powdery mildew [3] | Other: Pl, activity against apple powdery mildew (Podosphaera leucotricha) | other results
1 | N#CN=[N+]([O-])c1ccccc1C(=O)O [2-(cyano-N,N,O-azoxy)benzoic acid] | low activity against bacteria | no relevant activity against the tested fungi | – | – | – | –
2 | COC(=O)N=[N+]([O-])c1ccc(C)c2c1OC(C)CC2 (stereo not drawn) [Example 46] | – | – | 2 | 2 | – | Pvp: direct protectant activity against vine downy mildew (Plasmopara viticola [1]): 2; Ln: activity against wheat leafspot (Leptosphaeria nodorum): 2; As: activity against tomato early blight (Alternaria Solani): 2; Other: Po, activity against rice leaf blast (Pyricularia oryzae): 2
3 | N#CN=[N+]([O-])c1ccc(C(=O)O)cc1 [calvatic acid, 4 -(cyano-N,N,O-azoxy) benzoic acid] | antibacterial and antifungal activity | antibacterial and antifungal activity | – | – | – | –
4 | C=CCOC(=O)N=Nc1ccc(C)c2c1OC(C)CC2 (stereo not drawn) [Example 40] | – | – | – | – | 2 | Ln: activity against wheat leafspot (Leptosphaeria nodorum): 1
5 | COC(=O)N=[N+]([O-])c1cccc2c1OC(C)(C)C2 [Example 43] | – | – | 2 | 2 | 1 | Bcp: direct protectant activity against vine grey mould (Botrytis cinerea): 1; activity against Ph ([2]; secondary screening): high activity
6 | C[S+](C)[O-].N#CN=[N+]([O-])c1ccc(C(=O)O)cc1 [4-carboxyphenylazoxycyanide-dimethylsulphoxide] | Antibacterial and antifungal properties | Antibacterial and antifungal properties | – | – | – | –
7 | CCC1Cc2c(C)ccc(N=NC(=O)OC)c2O1 (stereo not drawn) [Example 37] | – | – | 1 | – | 1 | Pvp: direct protectant activity against vine downy mildew (Plasmopara viticola [1]): 1; As: activity against tomato early blight (Alternaria Solani): 1; activity against Pvt (Plasmopara viticola [4]): high activity
8 | COC(=O)c1ccc([N+]([O-])=NC#N)cc1 [calvatic acid methyl ester] | antibacterial and antifungal activity | antibacterial and antifungal activity | – | – | – | –
9 | COC(=O)N=Nc1cccc2c1OC(C)(C)C2 [Example 31] | – | – | 1 | 1 | 1 | Fs: activity against seedling wheat blight (Fusarium culmorum): 1
